Assay results from US8148391B2 (Cephalon, Inc., priority 2006, dated 2012).

Legend:
[1] = target: T1, baculovirus-expressed ALK (Homo sapiens, UniProt Q9UM73); test: ALK Kinase Assay (ELISA-type, time-resolved fluorescence); type: biochemical; conditions: 1 μM ATP (Km level); read-out: ALK Activity (ALK Kinase Inhibition, IC50)
T1 construct: host or cells: baculovirus expression system
Procedure, shortened: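 Wells were coated with phospholipase C-γ at 10 μg/mL in Tris-buffered saline. Adding 30 ng/ml enzyme started the reaction, which ran at 37° C for 15 minutes before Eu-N1 PT66 antibody detection. Percent inhibition versus log10 concentration gave IC50 by variable-slope fit.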

[2] = target: T2, c-Met (cytoplasmic domain) (Homo sapiens, UniProt P08581); test: c-Met Kinase Assay (same methods as for ALK, with modifications); type: biochemical; conditions: 1 μM ATP (Km level); read-out: cMet Activity (c-Met Kinase Inhibition, IC50)
T2 construct: 10 ng/mL c-Met (cytoplasmic domain, Invitrogen Corporation #PV3143); purchased Invitrogen Corporation PV3143
T2 sequence (P08581 956-1390 limits assumed): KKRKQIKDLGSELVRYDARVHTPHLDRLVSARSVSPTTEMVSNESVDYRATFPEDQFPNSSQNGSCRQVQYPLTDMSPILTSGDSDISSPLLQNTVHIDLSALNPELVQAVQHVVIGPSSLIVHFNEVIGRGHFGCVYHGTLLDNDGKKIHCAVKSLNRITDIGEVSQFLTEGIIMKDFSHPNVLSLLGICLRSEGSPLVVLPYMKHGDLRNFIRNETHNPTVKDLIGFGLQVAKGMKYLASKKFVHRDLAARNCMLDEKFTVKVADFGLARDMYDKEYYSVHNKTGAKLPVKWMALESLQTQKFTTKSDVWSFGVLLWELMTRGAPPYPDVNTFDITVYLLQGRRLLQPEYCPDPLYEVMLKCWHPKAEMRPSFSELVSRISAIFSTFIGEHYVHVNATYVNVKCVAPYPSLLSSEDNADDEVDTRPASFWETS
Procedure, shortened: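 Steps: coat wells with PLC-γ (10 μg/mL, Tris-buffered saline); add 10 ng/mL c-Met cytoplasmic domain to initiate; incubate 15 min, 37° C; detect phosphoproduct via Eu-N1 PT66 antibody.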

T1 sequence (Q9UM73 19-1620): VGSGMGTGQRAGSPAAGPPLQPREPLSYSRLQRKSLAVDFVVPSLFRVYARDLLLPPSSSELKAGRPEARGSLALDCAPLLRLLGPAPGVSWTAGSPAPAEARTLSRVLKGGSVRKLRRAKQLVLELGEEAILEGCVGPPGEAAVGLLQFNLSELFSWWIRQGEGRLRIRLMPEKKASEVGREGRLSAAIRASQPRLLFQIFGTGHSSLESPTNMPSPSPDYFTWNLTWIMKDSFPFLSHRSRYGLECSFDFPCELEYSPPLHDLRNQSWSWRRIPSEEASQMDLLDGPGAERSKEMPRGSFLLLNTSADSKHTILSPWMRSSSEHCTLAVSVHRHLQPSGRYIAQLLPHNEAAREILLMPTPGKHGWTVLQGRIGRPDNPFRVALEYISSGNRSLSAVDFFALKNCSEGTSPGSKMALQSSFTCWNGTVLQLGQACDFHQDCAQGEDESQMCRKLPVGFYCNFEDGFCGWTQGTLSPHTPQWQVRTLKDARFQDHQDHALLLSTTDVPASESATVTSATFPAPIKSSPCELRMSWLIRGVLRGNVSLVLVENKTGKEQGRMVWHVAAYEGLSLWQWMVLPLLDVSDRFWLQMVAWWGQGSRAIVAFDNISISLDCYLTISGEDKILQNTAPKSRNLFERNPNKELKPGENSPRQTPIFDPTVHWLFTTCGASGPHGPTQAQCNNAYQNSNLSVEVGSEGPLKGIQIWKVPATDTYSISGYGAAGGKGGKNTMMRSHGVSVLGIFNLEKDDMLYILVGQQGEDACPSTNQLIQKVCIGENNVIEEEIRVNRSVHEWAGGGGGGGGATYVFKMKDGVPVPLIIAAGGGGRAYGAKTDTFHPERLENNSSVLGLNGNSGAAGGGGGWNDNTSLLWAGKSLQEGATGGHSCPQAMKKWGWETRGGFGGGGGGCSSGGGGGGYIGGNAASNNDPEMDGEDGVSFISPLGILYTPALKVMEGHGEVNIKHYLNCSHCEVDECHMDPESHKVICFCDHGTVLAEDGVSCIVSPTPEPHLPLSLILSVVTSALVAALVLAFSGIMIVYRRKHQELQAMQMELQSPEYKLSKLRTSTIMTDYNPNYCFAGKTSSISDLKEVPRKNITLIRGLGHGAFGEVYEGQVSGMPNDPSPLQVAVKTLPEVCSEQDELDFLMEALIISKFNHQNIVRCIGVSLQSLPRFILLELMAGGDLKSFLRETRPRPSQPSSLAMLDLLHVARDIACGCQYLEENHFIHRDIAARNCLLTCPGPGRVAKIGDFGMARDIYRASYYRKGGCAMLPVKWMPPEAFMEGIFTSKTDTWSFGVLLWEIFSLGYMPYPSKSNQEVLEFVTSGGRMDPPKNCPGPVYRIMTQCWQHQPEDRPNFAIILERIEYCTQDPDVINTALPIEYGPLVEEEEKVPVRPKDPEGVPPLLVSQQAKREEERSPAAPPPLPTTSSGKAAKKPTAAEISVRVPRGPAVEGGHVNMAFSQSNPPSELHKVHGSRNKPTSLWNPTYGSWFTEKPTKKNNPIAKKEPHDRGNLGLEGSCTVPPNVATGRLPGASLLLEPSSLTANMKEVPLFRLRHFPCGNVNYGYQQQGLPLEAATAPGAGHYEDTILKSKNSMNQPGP

| Compound | IC50 [1] [µM] | IC50 [2] [µM] |
| --- | --- | --- |
| CCN1C(=O)CNCc2cc(OC)c(Nc3ncc(Cl)c(Nc4ccccc4S(=O)(=O)C(C)C)n3)cc21 [Example 729, 8-{5-Chloro-4-[2-(propane-2-sulfonyl)-phenylamino]-pyrimidin-2-ylamino}-1-ethyl-7-methoxy-1,3,4,5-tetrahydro-benzo[e][1,4]diazepin-2-one] | < 0.1 | 1 to 10 |
| CCN1CCN(CC)c2cc(Nc3ncc(Cl)c(Nc4ccccc4S(=O)(=O)N(C)C)n3)ccc2C1 [Example 730, 2-[5-Chloro-2-(1,4-diethyl-2,3,4,5-tetrahydro-1H-benzo[e][1,4]diazepin-8-ylamino)-pyrimidin-4-ylamino]-N,N-dimethyl-benzenesulfonamide] | < 0.1 | < 0.1 |
| CCN1CCN(CC)c2cc(Nc3ncc(Cl)c(Nc4ccccc4OCC#N)n3)ccc2C1 [Example 731, {2-[5-Chloro-2-(1,4-diethyl-2,3,4,5-tetrahydro-1H-benzo[e][1,4]diazepin-8-ylamino)-pyrimidin-4-ylamino]-phenoxy}-acetonitrile] | < 0.1 | 0.1 to 1 |
| CCN1CCN(CC)c2cc(Nc3ncc(Cl)c(Nc4ccc(OC)cc4-n4cccn4)n3)ccc2C1 [Example 732, 5-Chloro-N(2)-(1,4-diethyl-2,3,4,5-tetrahydro-1H-benzo[e][1,4]diazepin-8-yl)-N(4)-(4-methoxy-2-pyrazol-1-yl-phenyl)-pyrimidine-2,4-diamine] | < 0.1 | 1 to 10 |
| CCN1CCN(CC)c2cc(Nc3ncc(Cl)c(Nc4ccc5c(c4)CN(CCOC)CCS5)n3)ccc2C1 [Example 733, 5-Chloro-N(2)-(1,4-diethyl-2,3,4,5-tetrahydro-1H-benzo[e][1,4]diazepin-8-yl)-N(4)-[8-(2-methoxy-ethyl)-6,7,8,9-tetrahydro-5-thia-8-aza-benzocyclohepten-2-yl]-pyrimidine-2,4-diamine] | < 0.1 | 1 to 10 |
| CCN(CCO)Cc1cc(Nc2nc(Nc3ccc4c(c3)N(CC)CCN(CC)C4)ncc2Cl)ccc1F [Example 734, 2-({5-[5-Chloro-2-(1,4-diethyl-2,3,4,5-tetrahydro-1H-benzo[e][1,4]diazepin-8-ylamino)-pyrimidin-4-ylamino]-2-fluoro-benzyl}-ethyl-amino)-ethanol] | < 0.1 | > 10 |
| CCN(CCO)Cc1cc(Nc2nc(Nc3cc4c(cc3OC)CCN(CC(=O)N(C)C)CC4)ncc2Cl)ccc1F [Example 735, 2-{7-[5-Chloro-4-(3-{[ethyl-(2-hydroxy-ethyl)-amino]-methyl}-4-fluoro-phenylamino)-pyrimidin-2-ylamino]-8-methoxy-1,2,4,5-tetrahydro-benzo[d]azepin-3-yl}-N,N-dimethyl-acetamide] | < 0.1 | > 10 |
| CCN1CC(=O)N(CC)c2cc(Nc3ncc(Cl)c(N[C@@H]4CCCC[C@H]4NS(C)(=O)=O)n3)c(OC)cc2C1 [Example 736, N,N-{(1R,2R)-2-[5-Chloro-2-(1,4-diethyl-7-methoxy-2-oxo-2,3,4,5-tetrahydro-1H-benzo[e][1,4]diazepin-8-ylamino)-pyrimidin-4-ylamino]-cyclohexyl}-methanesulfonamide] | 0.1 to 1 | > 10 |
| CCN1CC(=O)N(CC)c2cc(Nc3ncc(Cl)c(Nc4ccc(OC)cc4-n4cccn4)n3)c(OC)cc2C1 [Example 737, 8-[5-Chloro-4-(4-methoxy-2-pyrazol-1-yl-phenylamino)-pyrimidin-2-ylamino]-1,4-diethyl-7-methoxy-1,3,4,5-tetrahydro-benzo[e][1,4]diazepin-2-one] | < 0.1 | > 10 |
| CCN1CC(=O)N(CC)c2cc(Nc3ncc(Cl)c(Nc4ccccc4S(=O)(=O)N(C)C)n3)c(OC)cc2C1 [Example 738, 2-[5-Chloro-2-(1,4-diethyl-7-methoxy-2-oxo-2,3,4,5-tetrahydro-1H-benzo[e][1,4]diazepin-8-ylamino)-pyrimidin-4-ylamino]-N,Ndimethyl-benzenesulfonamide] | < 0.1 | > 10 |
| CCN1CC(=O)N(CC)c2cc(Nc3ncc(Cl)c(N[C@H]4[C@@H](C(N)=O)[C@@H]5C=C[C@H]4C5)n3)c(OC)cc2C1 [Example 739, (1S,2,3R,4R)-3-[5-Chloro-2-(1,4-diethyl-7-methoxy-2-oxo-2,3,4,5-tetrahydro-1H-benzo[e][1,4]diazepin-8-ylamino)-pyrimidin-4-ylamino]-bicyclo(2.2.1)hept-5-ene-2-carboxylic acid amide] | 0.1 to 1 | > 10 |
| CCN(CCO)Cc1cc(Nc2nc(Nc3ccc4c(c3OC)CCC(N3CCOCC3)CC4)ncc2Cl)ccc1F (stereo not drawn) [Example 740, 2-([5-[5-Chloro-2-(1-methoxy-7-morpholin-4-yl-6,7,8,9-tetrahydro-5H-benzocyclohepten-2-ylamino)-pyrimidin-4-ylamino]-2-fluoro-benzyl}-ethylamino)-ethanol] | < 0.1 | > 10 |
| CCN1CC(=O)N(C)c2cc(Nc3ncc(Cl)c(N[C@H]4[C@@H](C(N)=O)[C@@H]5C=C[C@H]4C5)n3)c(OC)cc2C1 [Example 741] | < 0.1 | > 10 |
| CCN1CC(=O)N(C)c2cc(Nc3ncc(Cl)c(Nc4ccc(OC)cc4-n4cccn4)n3)c(OC)cc2C1 [Example 742, 8-[5-Chloro-4-(4-methoxy-2-pyrazol-1-yl-phenylamino)-pyrimidin-2-ylamino]-4-ethyl-7-methoxy-1-methyl-1,3,4,5-tetrahydro-benzo[e][1,4]diazepin-2-one] | < 0.1 | > 10 |
| COc1cc2c(cc1Nc1ncc(Cl)c(N[C@H]3[C@@H](C(N)=O)[C@@H]4C=C[C@H]3C4)n1)N(C)C(=O)CNC2 [Example 743, (1S,2S3,R,4R)-3-[5-Chloro-2-(7-methoxy-1-methyl-2-oxo-2,3,4,5-tetrahydro-1H-benzo[e][1,4]diazepin-8-ylamino)-pyrimidin-4-ylamino]-bicyclo[2.2.1]hept-5-ene-2-carboxylic acid amide] | < 0.1 | > 10 |
| COc1cc2c(cc1Nc1ncc(Cl)c(N[C@H]3[C@@H](C(N)=O)[C@@H]4C=C[C@H]3C4)n1)N(C)C(=O)CN(CC#N)C2 [Example 744, (1S,2S,3R,4R)-3 [5-Chloro-2-(4-cyanomethyl-7-methoxy-1-methyl-2-oxo-2,3,4,5-tetrahydro-1H-benzo[e][1,4]diazepin-8-ylamino)-pyrimidin-4-ylamino]-bicyclo(2.2.1)hept-5-ene-2-carboxylic acid amide] | 0.1 to 1 | > 10 |
| CCN1CC(=O)N(C)c2cc(Nc3ncc(Cl)c(N[C@@H]4CCCC[C@H]4NS(C)(=O)=O)n3)c(OC)cc2C1 [Example 745, N-[(1R,2R)-2-[5-Chloro-2-(4-ethyl-7-methoxy-1-methyl-2-oxo-2,3,4,5-tetrahydro-1H-benzo[e][1,4]diazepin-8-ylamino)-pyrimidin-4-ylamino]-cyclohexyl}-methanesulfonamide] | 0.1 to 1 | > 10 |
| COc1cc2c(cc1Nc1ncc(Cl)c(N[C@@H]3CCCC[C@H]3NS(C)(=O)=O)n1)N(C)C(=O)CN(CC1CC1)C2 [Example 746, N-{(1R,2R)-2-[5-Chloro-2-(4-cyclopropylmethyl-7-methoxy-1-methyl-2-oxo-2,3,4,5-tetrahydro-1H-benzo[e][1,4]diazepin-8-ylamino)-pyrimidin-4-ylamino]-cyclohexyl}-methanesulfonamide] | 0.1 to 1 | > 10 |
